{
  "source": "paper PMC5346980",
  "about": "(ACS Medicinal Chemistry Letters, 2017)",
  "key": {"Purified Hb": {"target": "Purified Hb (Homo sapiens, UniProt P69905)", "sequence (P69905 2-142 limits assumed)": "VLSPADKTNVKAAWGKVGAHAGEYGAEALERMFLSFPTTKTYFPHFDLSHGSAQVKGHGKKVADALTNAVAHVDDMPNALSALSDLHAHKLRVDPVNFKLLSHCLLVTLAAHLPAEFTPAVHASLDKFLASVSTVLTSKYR", "assay": "Time dependence of hemoglobin-oxygen affinity", "assay_type": "biochemical", "details": "Purified Hb 25 µM, 37 °C"}, "CYP2C19": {"target": "CYP2C19 (Homo sapiens, UniProt P33261)", "sequence (P33261 whole entry)": "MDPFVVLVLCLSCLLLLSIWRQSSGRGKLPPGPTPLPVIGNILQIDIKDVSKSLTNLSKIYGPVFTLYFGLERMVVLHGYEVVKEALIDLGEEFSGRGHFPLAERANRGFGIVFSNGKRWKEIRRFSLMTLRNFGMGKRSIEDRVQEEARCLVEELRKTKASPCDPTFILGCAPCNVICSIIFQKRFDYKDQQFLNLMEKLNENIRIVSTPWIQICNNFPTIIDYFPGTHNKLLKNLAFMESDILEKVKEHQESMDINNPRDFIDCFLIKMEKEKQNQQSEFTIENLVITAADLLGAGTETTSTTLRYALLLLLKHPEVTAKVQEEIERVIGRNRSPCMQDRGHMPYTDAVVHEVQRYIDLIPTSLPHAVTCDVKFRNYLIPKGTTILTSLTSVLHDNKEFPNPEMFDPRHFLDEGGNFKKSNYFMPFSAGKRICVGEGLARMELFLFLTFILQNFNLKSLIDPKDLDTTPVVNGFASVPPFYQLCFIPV", "assay": "Time-dependent CYP inhibition", "assay_type": "in vitro ADME"}, "CYP3A4": {"target": "CYP3A4 (Homo sapiens, UniProt P08684)", "sequence (P08684 whole entry)": "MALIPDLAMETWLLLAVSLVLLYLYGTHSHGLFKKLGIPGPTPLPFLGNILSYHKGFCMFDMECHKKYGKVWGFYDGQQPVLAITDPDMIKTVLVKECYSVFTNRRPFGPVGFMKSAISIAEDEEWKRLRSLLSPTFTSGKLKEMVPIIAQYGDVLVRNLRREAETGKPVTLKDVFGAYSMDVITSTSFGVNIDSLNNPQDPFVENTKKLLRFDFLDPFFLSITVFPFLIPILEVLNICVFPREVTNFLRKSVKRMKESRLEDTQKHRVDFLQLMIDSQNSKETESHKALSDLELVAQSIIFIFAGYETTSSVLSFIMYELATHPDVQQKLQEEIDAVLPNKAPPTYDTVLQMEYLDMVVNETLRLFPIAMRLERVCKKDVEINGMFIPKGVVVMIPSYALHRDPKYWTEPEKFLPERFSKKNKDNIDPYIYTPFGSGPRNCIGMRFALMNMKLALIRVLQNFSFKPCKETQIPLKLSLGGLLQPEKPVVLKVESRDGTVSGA", "assay": "Time-dependent CYP inhibition", "assay_type": "in vitro ADME"}, "P-gp": {"target": "P-gp (Homo sapiens, UniProt P08183)", "sequence (P08183 whole entry)": "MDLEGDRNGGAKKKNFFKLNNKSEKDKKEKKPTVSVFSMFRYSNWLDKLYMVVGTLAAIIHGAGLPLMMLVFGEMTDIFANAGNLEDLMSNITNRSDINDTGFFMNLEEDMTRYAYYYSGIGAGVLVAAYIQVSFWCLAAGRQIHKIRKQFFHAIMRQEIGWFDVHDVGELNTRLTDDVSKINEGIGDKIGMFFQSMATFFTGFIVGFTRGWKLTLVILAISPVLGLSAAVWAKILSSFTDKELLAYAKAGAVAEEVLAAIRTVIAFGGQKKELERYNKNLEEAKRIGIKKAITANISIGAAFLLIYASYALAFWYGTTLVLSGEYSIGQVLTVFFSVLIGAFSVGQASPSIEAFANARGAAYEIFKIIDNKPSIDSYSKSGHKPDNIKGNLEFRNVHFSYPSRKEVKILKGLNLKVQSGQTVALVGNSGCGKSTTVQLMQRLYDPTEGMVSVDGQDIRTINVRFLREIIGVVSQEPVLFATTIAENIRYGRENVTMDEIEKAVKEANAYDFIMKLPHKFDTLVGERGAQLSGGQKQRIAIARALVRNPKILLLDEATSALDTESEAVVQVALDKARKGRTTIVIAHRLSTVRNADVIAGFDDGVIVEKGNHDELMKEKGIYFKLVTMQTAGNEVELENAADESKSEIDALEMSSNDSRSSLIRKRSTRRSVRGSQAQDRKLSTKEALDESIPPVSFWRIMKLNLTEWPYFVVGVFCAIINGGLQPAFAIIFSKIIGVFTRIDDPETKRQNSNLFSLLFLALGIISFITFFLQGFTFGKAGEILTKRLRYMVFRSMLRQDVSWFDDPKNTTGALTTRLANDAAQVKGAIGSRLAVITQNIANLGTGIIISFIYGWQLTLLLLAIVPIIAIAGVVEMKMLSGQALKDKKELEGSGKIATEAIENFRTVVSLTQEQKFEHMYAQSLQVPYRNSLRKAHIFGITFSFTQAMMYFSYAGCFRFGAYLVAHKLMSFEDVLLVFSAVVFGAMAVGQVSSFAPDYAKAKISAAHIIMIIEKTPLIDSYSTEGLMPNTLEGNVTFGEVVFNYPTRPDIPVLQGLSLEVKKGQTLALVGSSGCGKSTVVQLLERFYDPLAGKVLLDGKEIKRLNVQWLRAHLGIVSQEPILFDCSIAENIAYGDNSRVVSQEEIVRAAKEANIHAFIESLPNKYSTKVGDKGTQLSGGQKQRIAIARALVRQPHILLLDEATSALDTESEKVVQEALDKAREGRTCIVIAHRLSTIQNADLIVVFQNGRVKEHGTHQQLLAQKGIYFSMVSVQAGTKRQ", "assay": "Transporter substrate assessment", "assay_type": "in vitro ADME"}, "BCRP": {"target": "T1, BCRP (Homo sapiens, UniProt Q9UNQ0)", "T1 sequence (Q9UNQ0 1-655)": "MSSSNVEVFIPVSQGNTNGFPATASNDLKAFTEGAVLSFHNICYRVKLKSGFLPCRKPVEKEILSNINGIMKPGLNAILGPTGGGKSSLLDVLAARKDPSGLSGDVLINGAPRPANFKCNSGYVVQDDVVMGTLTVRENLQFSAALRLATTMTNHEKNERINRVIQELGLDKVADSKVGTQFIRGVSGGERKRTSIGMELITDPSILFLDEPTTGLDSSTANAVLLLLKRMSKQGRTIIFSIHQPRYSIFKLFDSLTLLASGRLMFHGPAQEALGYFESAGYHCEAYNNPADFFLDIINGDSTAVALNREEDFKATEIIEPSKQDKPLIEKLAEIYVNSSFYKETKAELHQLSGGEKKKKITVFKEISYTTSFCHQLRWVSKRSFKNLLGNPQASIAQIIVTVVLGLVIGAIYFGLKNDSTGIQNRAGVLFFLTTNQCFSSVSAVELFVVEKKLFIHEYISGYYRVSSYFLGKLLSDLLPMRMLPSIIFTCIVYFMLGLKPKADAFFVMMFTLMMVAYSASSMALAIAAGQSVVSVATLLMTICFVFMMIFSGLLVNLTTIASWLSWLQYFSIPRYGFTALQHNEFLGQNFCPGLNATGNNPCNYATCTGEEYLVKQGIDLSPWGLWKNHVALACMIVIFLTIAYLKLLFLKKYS", "assay": "Transporter substrate assessment", "assay_type": "in vitro ADME"}, "[1]": {"details": "rats; cited from earlier work"}, "[2]": {"details": "dogs; cited from earlier work"}, "[3]": {"details": "monkeys; cited from earlier work"}, "[4]": {"target": "purified Hb (a mixture of HbA and HbS) (Homo sapiens, UniProt P69905)", "sequence (P69905 2-142 limits assumed)": "as the sequence (P69905 2-142 limits assumed) above", "assay": "Hemoximetry oxygen equilibrium curves", "assay_type": "biochemical", "details": "des-formyl compound lacking the aldehyde"}},
  "note": "Like-named read-outs stand apart in the source and are kept apart here.",
  "data": [
    {"compound": "O=Cc1ccc(CO)o1", "note": "[Compound 1, 5-hydroxymethylfurfural]", "values": [
      {"measurement": "time to maximum effect on Hb oxygenation (surrogate for on-rate)", "setting": "Purified Hb; compound 5 mM", "value": "~1", "unit": "h"}
    ]},
    {"compound": "COc1ccc(OCc2cccnc2)c(C=O)c1", "note": "[Compound 4]", "values": [
      {"measurement": "time to maximum effect on Hb oxygenation (surrogate for on-rate)", "setting": "Purified Hb; compound 100 µM", "value": "~1", "unit": "h"}
    ]},
    {"compound": "CC(C)n1nccc1-c1ncccc1COc1cccc(O)c1C=O", "note": "[Compound 36]", "values": [
      {"measurement": "time-dependent inhibition", "setting": "CYP2C19", "value": "no significant time-dependent inhibition"},
      {"measurement": "time-dependent inhibition", "setting": "CYP3A4", "value": "no significant time-dependent inhibition"},
      {"measurement": "substrate for P-gp transporter", "setting": "P-gp", "value": "not a substrate"},
      {"measurement": "substrate for BCRP transporter", "setting": "BCRP", "value": "not a substrate"},
      {"measurement": "blood and plasma half-lives", "setting": "[1]", "value": "approximately 20 h"},
      {"measurement": "blood and plasma half-lives", "setting": "[2]", "value": "approximately 20 h"},
      {"measurement": "blood and plasma half-lives", "setting": "[3]", "value": "approximately 20 h"}
    ]},
    {"compound": "COc1ccc(OCc2cccnc2-c2ccnn2C(C)C)cn1", "note": "[Compound 46]", "values": [
      {"measurement": "activity as Hb allosteric modulator (result in words)", "setting": "[4]", "value": "inactive"}
    ]}
  ]
}
